Source: article PMC6409996, “Pharmacodynamics and Pharmacokinetics of a New Type of Compound Lansoprazole Capsule in Gastric Ulcer Rats and Beagle Dogs: Importance of Adjusting Oxidative Stress and Inflammation” (Pharmaceutics, 2019)

How the values were obtained:
[1] = test system: VEGF; assay: Immunohistochemistry evaluation of gastric tissue for VEGF; assay type: in vivo, rat; conditions: the LSZ group, p < 0.01
Description: (§1) Gastric tissues were post fixed in 4% paraformaldehyde overnight at 4 °C before routine paraffin sections (4 μm) were prepared for immunohistochemical staining. Paraffin-embedded slices of tissues were incubated overnight at 4 °C with primary rabbit anti-VEGF and anti-COX-2 antibody (1:200, Thermo). After rinsing, sections were incubated in biotinylated goat anti-rabbit IgG (1:200, Maixin) at 37 °C for 30 min and were subsequently incubated in streptavidin-peroxidase conjugate (1:200, Maixin) at 37 °C for 30 min. The sections were developed with 3,3′-diaminobenzidine (DAB) in a chromogen solution and counter-stained with hematoxylin. Images were obtained using an Olympus BX-61microscope (Tokyo, Japan).

[2] = Stability of lansoprazole in dog plasma (method validation); assay type: in vitro ADME; conditions: n = 3
From the text: The method was fully validated in accordance with the US Food and Drug Administration (FDA) guidelines. Specificity, linearity, LLOQ, precision, accuracy, recovery, matrix effect and stability were all experimentally investigated.

[3] = biological target: H^+-K^+-ATP enzyme (Rattus norvegicus, UniProt P09626); assay: Measurement of H+-K+-ATP enzyme activity in gastric ulcer rats; conditions: 2.7 mg/kg, seven consecutive days, mean ± SD, n = 6
Sequence of H^+-K^+-ATP enzyme (P09626 whole entry): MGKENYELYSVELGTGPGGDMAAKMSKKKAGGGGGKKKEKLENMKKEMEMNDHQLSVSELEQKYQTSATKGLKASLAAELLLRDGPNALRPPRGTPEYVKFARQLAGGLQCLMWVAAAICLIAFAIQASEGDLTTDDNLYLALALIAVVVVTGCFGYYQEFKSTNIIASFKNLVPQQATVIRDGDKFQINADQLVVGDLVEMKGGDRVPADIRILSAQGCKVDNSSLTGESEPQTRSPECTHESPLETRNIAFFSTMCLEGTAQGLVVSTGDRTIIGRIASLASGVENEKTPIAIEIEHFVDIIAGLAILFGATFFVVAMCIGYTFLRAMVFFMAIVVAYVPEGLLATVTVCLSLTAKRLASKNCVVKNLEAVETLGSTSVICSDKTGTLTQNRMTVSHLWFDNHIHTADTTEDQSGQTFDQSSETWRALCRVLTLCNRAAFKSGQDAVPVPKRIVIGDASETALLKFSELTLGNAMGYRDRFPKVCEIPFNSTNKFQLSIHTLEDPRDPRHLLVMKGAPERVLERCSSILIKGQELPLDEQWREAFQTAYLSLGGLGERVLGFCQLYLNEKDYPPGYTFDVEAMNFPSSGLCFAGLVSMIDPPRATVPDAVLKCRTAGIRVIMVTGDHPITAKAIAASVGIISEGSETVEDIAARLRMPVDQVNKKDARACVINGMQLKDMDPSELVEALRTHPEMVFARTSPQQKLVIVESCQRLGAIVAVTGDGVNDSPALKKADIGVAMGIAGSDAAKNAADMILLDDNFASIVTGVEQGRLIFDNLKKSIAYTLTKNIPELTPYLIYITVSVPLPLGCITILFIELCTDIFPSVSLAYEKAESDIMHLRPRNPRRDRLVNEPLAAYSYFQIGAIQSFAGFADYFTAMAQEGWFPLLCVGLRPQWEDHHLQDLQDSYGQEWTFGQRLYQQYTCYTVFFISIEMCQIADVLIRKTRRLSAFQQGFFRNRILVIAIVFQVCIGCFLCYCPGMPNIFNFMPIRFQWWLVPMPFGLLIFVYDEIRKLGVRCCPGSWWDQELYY
Sequence of H^+-K^+-ATP enzyme (P18598 whole entry partner): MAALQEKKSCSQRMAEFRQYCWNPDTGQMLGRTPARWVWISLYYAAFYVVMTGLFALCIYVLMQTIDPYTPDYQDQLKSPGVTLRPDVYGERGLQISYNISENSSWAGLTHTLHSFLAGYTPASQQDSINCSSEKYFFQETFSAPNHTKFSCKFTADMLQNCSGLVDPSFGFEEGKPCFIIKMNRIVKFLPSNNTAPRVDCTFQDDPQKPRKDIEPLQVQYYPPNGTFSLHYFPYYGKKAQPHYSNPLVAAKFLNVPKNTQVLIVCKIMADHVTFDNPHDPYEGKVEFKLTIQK

[4] = test system: COX-2; assay: Immunohistochemistry evaluation of gastric tissue for COX-2; assay type: in vivo, rat; conditions: the LSZ group, p < 0.01
Description: as §1

[5] = test system: glacial acetic-acid-induced gastric ulcer; assay: Histopathological observation (H&E) of gastric mucosa, glacial acetic-acid-induced gastric ulcer; assay type: in vivo, rat; conditions: treatment with LSZ compared to the model group
Description: Cross-sections with a thickness of 4 µm were then papered for hematoxylin and eosin (H&E) staining. All specimens were assessed under a light microscopy.

[6] = test system: SOD; assay: Measurement of SOD level in gastric ulcer rats; conditions: 2.7 mg/kg, seven consecutive days, mean ± SD, n = 6
[7] = test system: COX-2; assay: Western blotting determination of gastric tissue for COX-2; assay type: in vivo, rat; conditions: LSZ versus model group, p < 0.01
Description: (§2) The homogenate was centrifuged at a force of 12,000 g for 30 min at 4 °C and protein qualification was carried out using a BCA kit. The total protein extract (25 μg per lane) was separated on SDS-polyacrylamide gels and transferred onto PVDF membranes. Nonspecific binding sites on the membrane were blocked by PBS containing 0.1% Tween-20 with 5% bovine serum albumin, which was followed by incubation with rabbit polyclonal primary antibodies against VEGF and COX-2 and β-actin overnight at 4 °C. Immunoreactive bands were visualized using the enhanced chemiluminescent kit. Bands were measured using the Quality One analysis software and the density of each band was normalized to β-actin.

[8] = test system: glacial acetic-acid-induced gastric ulcer; assay: Macroscopic gastric ulcer assay in the glacial acetic-acid-induced gastric ulcer model; assay type: in vivo, rat
Description: The gastric ulcer index (UI) was the total area of ulcer. The gastroprotection (%) was calculated and used for macroscopic gastric ulcer assay.

[9] = capsules containing enteric-coated granules; cited from earlier work
[10] = test system: VEGF; assay: Western blotting determination of gastric tissue for VEGF; assay type: in vivo, rat; conditions: LSZ versus model group, p < 0.01
Description: as §2

[11] = test system: MDA; assay: Measurement of MDA (lipid peroxidation, TBARS) in gastric ulcer rats; conditions: 2.7 mg/kg, seven consecutive days, mean ± SD, n = 6
[12] = nominal concentration 10 ng·mL^−1
[13] = nominal concentration 125 ng·mL^−1
[14] = nominal concentration 2000 ng·mL^−1

Cc1c(OCC(F)(F)F)ccnc1C[S+]([O-])c1nc2ccccc2[nH]1 (stereo not drawn) [LSZ, Lansoprazole]
Expression of VEGF (immunohistochemistry) [1]: increased expression | Stability in dog plasma, 3 Freeze-Thaw Cycles [2, 12]: 9.64 | Stability in dog plasma, 45 Days, −20 °C [2, 12]: 9.11 | Stability in dog plasma, 10 h, 4 °C [2, 12]: 9.35 | Stability in dog plasma, 24 h, Room Temperature [2, 12]: 10.00 | Stability in dog plasma, 3 Freeze-Thaw Cycles [2, 13]: 119.79 | Stability in dog plasma, 45 Days, −20 °C [2, 13]: 123.82 | Stability in dog plasma, 10 h, 4 °C [2, 13]: 124.51 | Stability in dog plasma, 24 h, Room Temperature [2, 13]: 132.80 | Stability in dog plasma, 3 Freeze-Thaw Cycles [2, 14]: 2128.46 | Stability in dog plasma, 45 Days, −20 °C [2, 14]: 1853.17 | Stability in dog plasma, 10 h, 4 °C [2, 14]: 2088.22 | Stability in dog plasma, 24 h, Room Temperature [2, 14]: 2024.38 | H^+-K^+-ATP enzyme activity [3]: 7.91 ± 0.76 mmol/g/h | Expression of COX-2 (immunohistochemistry) [4]: increased expression | Histological evaluation of gastric mucosa (submucosal edema, epithelial cell loss) [5]: protective effect on gastric mucosa | SOD [6]: 170.12 ± 13.19 μmol*g^−1 Pro | Expression of COX-2 protein (Western blot) [7]: significantly increase | Gastroprotection (%) ([8]; rats, intragastric, 2.7 mg/kg, seven consecutive days): 29.8% | UI ([8]; rats, intragastric, 2.7 mg/kg, seven consecutive days, UI = total area of ulcer, mean ± SD, n = 6): 28.30 ± 7.29 | Macroscopic gastric lesions ([8]; treatment with LSZ compared to the model group): significantly reduced | Time of peak concentration after oral administration [9]: ≤ 1 ± 2 h | Expression of VEGF protein (Western blot) [10]: significantly increase | MDA [11]: 75.32 ± 10.77 μmol*g^−1 Pro
